PubChem BioAssay AID330 (DTP/NCI, 2004)
Values joined by “and” are separate entries in the source; they are usually repeats but may differ in a detail not shown here. Equal values may be shown once. Inconclusive results and toxic doses are left out. Rule for the calls: active = survival T/C of 150% or more; inactive = T/C below 125% in these data.

System: P388 leukemia ip, CD2F1 mice, survival T/C
Assay: NCI In Vivo Anticancer Drug Screen. Data for tumor model P388 Leukemia (intraperitoneal) in CD2F1 (CDF1) mice
Conditions: endpoint: median survival time, higher = longer survival
Outline: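 Mice carrying the transplanted tumor received test compound or vehicle. Survival was recorded in each group, and the value is the treated-group measurement divided by that of the vehicle-treated control group.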

[1] = dose: 50.0 mg/kg/injection, schedule: Q01DX005 (ip), vehicle: saline with Tween-80
[2] = dose: 100.0 mg/kg/injection, schedule: Q01DX005 (ip), vehicle: saline with Tween-80
[3] = dose: 200.0 mg/kg/injection, schedule: Q01DX005 (ip), vehicle: saline with Tween-80
[4] = dose: 50.0 mg/kg/injection, schedule: Q01DX009 (ip), vehicle: saline with Tween-80
[5] = dose: 100.0 mg/kg/injection, schedule: Q01DX009 (ip), vehicle: saline with Tween-80
[6] = dose: 200.0 mg/kg/injection, schedule: Q01DX009 (ip), vehicle: saline with Tween-80
[7] = dose: 100.0 mg/kg/injection, schedule: Q01DX009 (ip), vehicle: Klucel (hydroxypropylcellulose) (HPC)
[8] = dose: 200.0 mg/kg/injection, schedule: Q01DX009 (ip), vehicle: Klucel (hydroxypropylcellulose) (HPC)
[9] = dose: 60.0 mg/kg/injection, schedule: Q01DX005 (ip), vehicle: saline with Tween-80
[10] = dose: 50.0 mg/kg/injection, schedule: Q01DX005 (ip), vehicle: Klucel (hydroxypropylcellulose) (HPC)
[11] = dose: 100.0 mg/kg/injection, schedule: Q01DX005 (ip), vehicle: Klucel (hydroxypropylcellulose) (HPC)
[12] = dose: 120.0 mg/kg/injection, schedule: Q01DX005 (ip), vehicle: saline with Tween-80
[13] = dose: 240.0 mg/kg/injection, schedule: Q01DX005 (ip), vehicle: saline with Tween-80
[14] = dose: 100.0 mg/kg/injection, schedule: Q04DX002 (ip), vehicle: saline with Tween-80
[15] = dose: 200.0 mg/kg/injection, schedule: Q04DX002 (ip), vehicle: saline with Tween-80
[16] = dose: 12.5 mg/kg/injection, schedule: Q01DX009 (ip), vehicle: saline with Tween-80
[17] = dose: 25.0 mg/kg/injection, schedule: Q01DX009 (ip), vehicle: saline with Tween-80
[18] = dose: 50.0 mg/kg/injection, schedule: Q01DX009 (ip), vehicle: Klucel (hydroxypropylcellulose) (HPC)
[19] = dose: 100.0 mg/kg/injection, schedule: Q04DX003 (ip), vehicle: saline with Tween-80
[20] = dose: 200.0 mg/kg/injection, schedule: Q04DX003 (ip), vehicle: saline with Tween-80

Measured: T/C

O=C(CNC(=O)C(Cc1c[nH]c2ccccc12)NC(=O)OCc1ccccc1)NCC(=O)OCc1ccccc1 (stereo unspecified)
inactive: [1] 104 % of control | [2] 100 % of control | [3] 110 % of control

O=C(/C=C/c1ccccc1)c1ccccc1O
inactive: [4] 96 % of control | [5] 104 % of control | [6] 101 % of control

CCOC(=O)c1ccc2c(c1)Nc1cc3ccccc3cc1N2
inactive: dose: 25.0 mg/kg/injection, schedule: Q01DX009 (ip), vehicle: saline + alcohol 104 % of control | dose: 50.0 mg/kg/injection, schedule: Q01DX009 (ip), vehicle: saline + alcohol 88 % of control | dose: 100.0 mg/kg/injection, schedule: Q01DX009 (ip), vehicle: saline + alcohol 101 % of control

CCCN(CCC)c1nsc(N)n1
inactive: dose: 7.5 mg/kg/injection, schedule: Q01DX009 (ip), vehicle: saline with Tween-80 113 % of control | dose: 15.0 mg/kg/injection, schedule: Q01DX009 (ip), vehicle: saline with Tween-80 113 % of control | dose: 30.0 mg/kg/injection, schedule: Q01DX009 (ip), vehicle: saline with Tween-80 118 % of control

CCCCCCC(=O)/C=C/c1cc(Cl)cc(Cl)c1OCOC
inactive: [7] 116 % of control | [8] 100 % of control

C(=N[C@H]1CCCC[C@H]1N=Cc1ccccn1)c1ccccn1
inactive: [1] 95 % of control | [2] 90 % of control | [3] 101 % of control

CCN(CC)CCNc1ccnc(F)n1
inactive: dose: 30.0 mg/kg/injection, schedule: Q01DX005 (ip), vehicle: saline with Tween-80 101 % of control | [9] 103 % of control

N=C(N)c1ccc(N=Nc2cc(/C=C/c3ccccc3)ccc2O)cc1
inactive: [10] 110 % of control | [11] 92 % of control

COc1cc(C(Nc2ncccn2)c2cc3c(cc2O)OCO3)cc(OC)c1OC (stereo unspecified)
inactive: [9] 100 % of control | [12] 92 % of control | [13] 90 % of control

O=S(=O)(CS(=O)(=O)Oc1ccccc1)Oc1ccccc1
inactive: [14] 104 % of control | [15] 96 % of control | dose: 400.0 mg/kg/injection, schedule: Q04DX002 (ip), vehicle: saline with Tween-80 98 % of control

O=C(NC(CCSSCCC(NC(=O)OCc1ccccc1)C(=O)OCc1ccccc1)C(=O)OCc1ccccc1)OCc1ccccc1 (stereo unspecified)
inactive: dose: 12.5 mg/kg/injection, schedule: Q01DX009 (ip), vehicle: other 91 % of control | dose: 25.0 mg/kg/injection, schedule: Q01DX009 (ip), vehicle: other 98 % of control | dose: 50.0 mg/kg/injection, schedule: Q01DX009 (ip), vehicle: other 94 % of control | dose: 100.0 mg/kg/injection, schedule: Q01DX009 (ip), vehicle: other 98 % of control | dose: 200.0 mg/kg/injection, schedule: Q01DX009 (ip), vehicle: other 100 % of control

CCOc1ccccc1N=Cc1c2ccccc2cc2ccccc12
inactive: [16] 100 % of control | [17] 95 % of control | [4] 98 % of control and 86 % of control | [5] 89 % of control

C=CC1(C)CCC2C(=CCC3C2(C)CC(O)C(O)C3(C)COC2OC(C(=O)O)C(O)C(O)C2O)C1 (stereo unspecified) (tested in a mixture with another compound)
inactive: dose: 12.5 mg/kg/injection, schedule: Q01DX009 (ip), vehicle: Klucel (hydroxypropylcellulose) (HPC) 103 % of control | dose: 25.0 mg/kg/injection, schedule: Q01DX009 (ip), vehicle: Klucel (hydroxypropylcellulose) (HPC) 100 % of control | [18] 106 % of control | [7] 100 % of control

Oc1ccccc1C=Nc1ccc2nc(SCc3ccccc3)sc2c1
inactive: [18] 109 % of control | [7] 100 % of control | [8] 89 % of control

COC(=O)C(CO)NC(=O)C(Cc1cnc[nH]1)N(C(=O)OCc1ccccc1)C(=O)OCc1ccccc1 (stereo unspecified)
inactive: [1] 94 % of control | [2] 96 % of control | [3] 94 % of control

C=C1CCOC1=O
inactive: dose: 50.0 mg/kg/injection, schedule: Q04DX002 (ip), vehicle: saline with Tween-80 97 % of control | [14] 105 % of control | [15] 105 % of control

NC(=O)c1[nH]c(/N=N/c2nc[nH]c2C(N)=O)nc1N
inactive: [18] 99 % of control | [7] 99 % of control | [8] 93 % of control

OCC1C2CCCC12 (stereo unspecified)
inactive: [4] 95 % of control | [5] 114 % of control | [6] 104 % of control

C/C=C/[Se]c1ccccc1
inactive: dose: 6.25 mg/kg/injection, schedule: Q01DX009 (ip), vehicle: saline with Tween-80 103 % of control | [16] 106 % of control | [17] 103 % of control | [5] 105 % of control and 107 % of control and 121 % of control

C[C@@H]1C[C@@H]2c3cccc4c3c(cn4C)C[C@H]2N(C)C1
inactive: [1] 104 % of control | [2] 107 % of control | [3] 104 % of control

CN(C)c1ccc2[nH]c3ccccc3c2c1
inactive: [9] 107 % of control | [12] 108 % of control | [13] 121 % of control

O=C1CCC(C(Sc2ccccc2)(Sc2ccccc2)Sc2ccccc2)C1 (stereo unspecified)
inactive: [18] 97 % of control | [7] 90 % of control | [8] 89 % of control

COC(=O)c1nnn(-c2ccc(S(N)(=O)=O)cc2)c1C(=O)c1ccc(Cl)c(Cl)c1
inactive: [9] 109 % of control | [12] 109 % of control | [13] 94 % of control

CCCCCCCCCCCCCOCC(=O)O
inactive: [18] 100 % of control | [7] 95 % of control | [8] 102 % of control

COc1cc2c(cc1OC)C(CS(C)=O)Cc1cc(OC)c(OC)cc1N(C)CCC2 (stereo unspecified)
inactive: [19] 93 % of control | [20] 87 % of control | dose: 400.0 mg/kg/injection, schedule: Q04DX003 (ip), vehicle: saline with Tween-80 100 % of control

C=CC1CC/C(=C/C)C(=O)O1 (stereo unspecified)
inactive: dose: 50.0 mg/kg/injection, schedule: Q04DX003 (ip), vehicle: saline with Tween-80 103 % of control | [19] 100 % of control | [20] 100 % of control

CC(C)=CCc1c(C)cc2cc3c(c(O)c2c1O)C(O)=CC(=O)C3(CC=C(C)C)C/C=C(\C)CO (stereo unspecified)
inactive: dose: 25.0 mg/kg/injection, schedule: Q01DX005 (ip), vehicle: Klucel (hydroxypropylcellulose) (HPC) 103 % of control | [10] 93 % of control | [11] 97 % of control

O=c1[nH]cncc1CCC1OCCO1
inactive: dose: 60.0 mg/kg/injection, schedule: Q01DX005 (ip), vehicle: saline 97 % of control | dose: 120.0 mg/kg/injection, schedule: Q01DX005 (ip), vehicle: saline 98 % of control | dose: 240.0 mg/kg/injection, schedule: Q01DX005 (ip), vehicle: saline 103 % of control
